PMC8835475, “Salviolone from Salvia miltiorrhiza Roots Impairs Cell Cycle Progression, Colony Formation, and Metalloproteinase-2 Activity in A375 Melanoma Cells: Involvement of P21(Cip1/Waf1) Expression and STAT3 Phosphorylation” (International Journal of Molecular Sciences, 2022)

Experiments:
Format in all cases: cell-based, human
[1] = system: A375 melanoma cell line; assay: SRB cell viability assay in A375 cells; settings: for inhibition of melanoma cell viability: A375, 20 µM; for inhibition of melanoma cell viability / EC50: 72 h; for viability reduction in melanoma cells / EC50: A375, SRB; for viability reduction in melanoma cells: 40–60 µM; for EC50: Homo sapiens, A-375, read-out: half maximal effective concentration (EC50) able to reduce cell viability
Description: In preliminary experiments, the evaluation of cell viability at different time after compound administration was carried out with sulforhodamine B (SRB) assay. Indeed, after 24-, 48-, and 72-h treatment, an evident time dependence in the inhibition of cell growth was registered (data not shown). Thus, to evaluate A375 and MeWo cell viability, we decided to perform further SRB experiments with each compound only after 72 h.
Human MeWo (HTB-65) and A375 (CRL-1619) melanoma cell lines as well as the normal human epidermal melanocyte (NHEM) (PCS-200-013) cell line (ATCC, Manassas, VA, USA) were cultured at 37 °C under 5% CO2 in a humidified atmosphere. Roswell Park Memorial Institute 1640 medium (RPMI, Gibco, Ref.21875, Thermo Scientific, Waltham, MA, USA) was used to culture MeWo cells, while Dulbecco’s Modified Eagle Medium (DMEM, Gibco, Ref. 61965, Thermo Scientific, Waltham, MA, USA) was used for A375 and NHEM cell lines. The culture media were supplemented with 10% fetal bovine serum (FBS, Gibco, Thermo Scientific, Waltham, MA, USA) plus 1% Antibiotic Antimycotic Solution (Gibco, Thermo Scientific). The MEK1 inhibitor U0126 (CAY-70970) and the PI3K inhibitor LY294002 (CAY-70920) were provided by Cayman Chemical, Ann Arbor, MI, USA.
Melanoma MeWo and A375 cells or NHEM were seeded in 96-well plates (5.0 × 10^3 cells/well for MeWo cells and 2.9 × 10^3 cells/well for A375 or NHEM). After 24-h culture, the cells were treated with different concentrations of compounds 1–7. After 72-h treatment, the cells were fixed by adding 25 µL/well of 50% (w/v) TCA directly into the culture medium. The plates were incubated at 4 °C for 1 h, washed four times with ddH2O, and dried at RT. Staining was performed by adding 50 µL/well of 0.04% (w/v) sulforhodamine B (SRB) sodium salt solution (Sigma-Aldrich, Milan, Italy). After 1-h incubation at RT, the plates were rinsed with 1% HAc and air-dried. SRB was solubilized in a 10 mM Tris-base solution pH 10.5 and Abs492 measured in the plate reader TECAN NanoQuant Infinite M200 Pro (Tecan Group Ltd., Männedorf, Switzerland). Six replicates for each condition/data point were performed.

[2] = system: pRb; assay: Immunoblot of pRb in A375 cells; settings: A375, 20 µM, 48 or 72 h
Description: (§1) A375 cells were seeded in 6 cm Petri dishes (190 300 cell/dish) and treated with different compounds at 10 or 20 μM. After 48- or 72-h treatment, the cells were scraped using warm 1× sample buffer (2% SDS, 10% glycerol, 50 mM Tris-HCl, 1.75% β-mercaptoethanol, and bromophenol blue) and boiled at 99 °C for 10 min. Total protein extracts were kept at −80 °C until use.
(§2) Protein extracts were analyzed with a 7.5 or 10% polyacrylamide SDS-PAGE and transferred to a polyvinylidene difluoride membrane (PVDF, Thermo Fisher Scientific, Waltham, MA, USA). The membranes were blocked at RT for 1 h with TBST buffer (10 mM Tris-HCl pH 7.5, 100 mM NaCl, 0.1% Tween20) containing 4% Milk (Formulat). […] Immuno-detection was carried out with an ECL kit (GE-Healthcare, Little Chalfont, UK), and the chemiluminescence signals were detected with ChemiDoc (Bio-Rad, Hercules, CA, USA).

[3] = system: pCdk2; assay: Immunoblot of pCdk2 in A375 cells; settings: A375, 20 µM, 48 or 72 h
Description: as §1, §2

[4] = system: cyclin A2; assay: Immunoblot of cyclin A2 in A375 cells; settings: A375, 20 µM, 48 or 72 h
Description: as §1, §2

[5] = system: P21(Cip1/Waf1); assay: Immunoblot of P21 in A375 cells; settings: A375, 20 µM, 48 and 72 h
Description: as §1, §2

[6] = system: P53; assay: Immunoblot of P53 in A375 cells; settings: A375, 20 µM, 48 and 72 h
Description: as §1, §2

[7] = system: pSer15-P53 (pP53); assay: Immunoblot of pSer15-P53 in A375 cells; settings: A375, 20 µM, vs untreated
Description: as §1, §2

[8] = system: Tyr705-STAT3 phosphorylation; assay: Immunoblot of p-Tyr705-STAT3 in A375 cells; settings: A375, 20 µM; for STAT3 activity (tyrosine and serine phosphorylation): 48 h; for Tyr705-STAT3 phosphorylation: 72 h, vs untreated cells
Description: as §1
(§3) Protein extracts were analyzed with a 7.5 or 10% polyacrylamide SDS-PAGE and transferred to a polyvinylidene difluoride membrane (PVDF, Thermo Fisher Scientific, Waltham, MA, USA). The membranes were blocked at RT for 1 h with TBST buffer (10 mM Tris-HCl pH 7.5, 100 mM NaCl, 0.1% Tween20) containing 4% Milk (Formulat). Then, they were incubated on a shaker, overnight (ON) at 4 °C, with 5% BSA solution containing primary antibodies against p-Tyr705-STAT3 (#9145, 1:1000), pRb (#8516, 1:2000), pERK (#4370, 1:1000), pAkt (#4060, 1:2000), pSer15-P53 (#9286, 1:2000) (Cell Signaling Technology, Danvers, […], USA), Akt (GTX121937, 1:3000), ERK (GTX134452, 1:6000), Cyclin A2 (GTX-103042, 1:3000), p-Thr160Cdk2 (GTX-133862, 1:3000), p21 (GTX-629543, 1:3000) (Genetex, Alton Pkwj Irvine, CA, USA), p53 (Sc-263, 1:1000), STAT3 (Sc-482, 1:1000), and p-Ser727-STAT3 (Sc-136193, 1:1000) (Santa Cruz Biotechnology, Dallas, TX, USA). The membranes were washed three times with TBST buffer for 30 min and then incubated for 1 h with a horseradish-peroxidase-conjugated secondary antibody (anti-rabbit 1:6000, Genetex), (anti-mouse, 1:4000, Cell Signaling Technology, Danvers, […], USA). They were washed another three times for 30 min with TBST buffer. All protein extracts were normalized with a β-actin protein antibody (GTX-124214, 1:10,000; Genetex, Alton Pkwj Irvine, CA, USA). Immuno-detection was carried out with an ECL kit (GE-Healthcare, Little Chalfont, UK), and the chemiluminescence signals were detected with ChemiDoc (Bio-Rad, Hercules, CA, USA).

[9] = system: p-Ser727-STAT3; assay: Immunoblot of p-Ser727-STAT3 in A375 cells; settings: A375, 20 µM, 72 h
Description: as §1, §2

[10] = system: pAkt; assay: Immunoblot of pAkt in A375 cells; settings: A375, 20 µM, 72 h; declined in control
Description: as §1, §3

[11] = system: Akt; assay: Immunoblot of total Akt in A375 cells; settings: A375, 20 µM, 48 and 72 h
Description: as §1, §2

[12] = system: A375 cells; assay: Wound closure cell migration assay; settings: A375, 20 µM, vs controls
Description: The wound healing assay is widely used to measure cell migration. The method is based on quantifying the rate at which cells can close an artificial scratch created in a confluent cell monolayer. A375 cells were seeded in 12-well plates (120 × 10^3 cells/well) and, once confluence was reached, the monolayer was scratched with a sterile 10 μL pipette tip. […] Then, either cryptotanshinone (4) or salviolone (7) at 10 or 20 µM was added to the culture. After 0-, 8-, 24- and 30-h culture, images were captured with Zeiss Axio Vert. (Zeiss, Milan, Italy) to measure the delay to repopulate the scratch in comparison with the non-treated control sample.

| SMILES | inhibition of melanoma cell viability [1] | viability reduction in melanoma cells [1] | EC50 [1] [µM] | phosphorylation of Rb (pRb) expression level [2] | pCdk2 (active form of Cdk2) expression level [3] | cyclin A2 expression level [4] | P21 expression level [5] | P53 protein expression [6] | pSer15-P53 (pP53) expression / P53 phosphorylation level [7] | STAT3 activity (tyrosine and serine phosphorylation) [8] | Tyr705-STAT3 phosphorylation [8] | p-Ser727-STAT3 level [9] | pAkt expression level [10] | expression level of Akt total protein [11] | A375 cell migration rate / wound healing closure [12] |
| --- | --- | --- | --- | --- | --- | --- | --- | --- | --- | --- | --- | --- | --- | --- | --- |
| C[C@H]1COC2=C1C(=O)C(=O)c1c2ccc2c1CCCC2(C)C [Compound 4, cryptotanshinone] | about 50% | 70–80% | ~14 | slightly reduced | slightly reduced | slightly reduced | significantly increased | significant increase | no significant increase | did not significantly change | significant reduction | increase | remained high | not changed | slow down |
| Cc1cc2ccc3c(c2cc(O)c1=O)CCCC3(C)C [Compound 7, salviolone] | about 50% | 70–80% | ~17 | strongly reduced | strongly reduced | strongly reduced | strongly increased | significant increase | higher | did not significantly change | significant reduction | increase | remained high | not changed | did not significantly delay |
